In patent publication EP0354694A1, “Therapeutic [1]benzothiopyrano[4,3-c]pyrazoles” (The Boots Company PLC, priority 1988, dated 1990):

System: BALB/c mice
Assay: cutaneous hypersensitivity test (CH test), oxazolone-induced ear swelling
Format: in vivo
Settings: Mus musculus, ip, 192 h; female BALB/c mice, intraperitoneal, daily from sensitisation for 8 days; lowest dose used with 20% or greater significant (p <0.05) reduction in ear swelling in two out of three CH tests; read-out: Minimum Effective Dose
Protocol: This test was carried out in the following way.
Female BALB/c mice, weight range 16-24 g, were used in groups of eight. The abdomen of each mouse was shaved and 20 µl of a solution of a sensitising agent, 5% w/v 4-ethoxymethylene-2-phenyl-2-oxazolin-5-one (oxazolone) in acetone:ethanol (1:1 by volume), was applied to the shaved area. Immediately after sensitisation, the test compound in one of the dosages listed below was injected intraperitoneally as a suspension in 1.5% v/v sorbitan esters, under the trade name Tween 80, in sterile water (100 µl). 100 µl of the same suspension was injected likewise every 24 hours for a further 7 days. The dosages used were selected from the following values: 50, 30, 10, 3, 1, 0.3, 0.1, 0.03 or 0.01 mg/kg.
Two groups of eight BALB/c mice were used as a control simultaneously with each test in a similar manner to that described above except that no test compound was included in the daily injections.
On the seventh day after sensitisation, 10 µl of a solution of 1% w/v oxazolone in acetone: olive oil (either 1:1 or 3:1 by volume) was applied to one ear (the challenged ear) of each of the test mice and the control mice. After 24 hours the thickness of the challenged ear and the thickness of the non-challenged ear of the same animal were measured with an engineer's screw gauge micrometer. The difference in thickness between the challenged ear and the non-challenged ear in each animal is a measure of the response of that animal to oxazolone. A comparison between the response of mice treated with the test compound and mice treated with the control indicates the effectiveness of the test compound as an immunomodulatory agent. The compounds were considered to be active at a particular dose if a 20% or greater reduction in ear swelling, which was statistically significant (p <0.05) according to Dunnett's test, between treated and control groups was obtained in two out of three CH tests, (or, where more than three tests have been carried out, a majority of the tests) at that dose (see for example Int. Arch. Allergy, 38, p246-259 (1970)).
Each of the compounds of formula I illustrated in Table A below was active at 50 mg/kg in two out of three tests at 50 mg/kg unless indicated otherwise (see Notes following the Table). The minimum effective dose (ie the lowest dose of those used at which the compound is active as defined above) for each compound is given in Table A. The Example (Ex) number or numbers listed adjacent to each compound indicates the process or processes illustrating the preparation of that compound in the Examples.

Row | Compound | minimal effective dose
1 | Cc1sc2ccccc2c2nn(-c3ccc(Cl)c(Cl)c3)c(=O)c1-2 [Example 43, 2-(3,4-dichlorophenyl)-4-methyl[1]-benzothiopyrano[4,3-c]pyrazol-3(2H)-one] | 3 mg/kg
2 | Cc1sc2ccccc2c2nn(-c3ccc(Cl)cc3)c(=O)c1-2 [Example 35, 2-(4-chlorophenyl)-4-methyl[1]-benzothiopyrano[4,3-c]pyrazol-3(2H)-one] | 10 mg/kg
3 | CC1Sc2ccccc2-c2[nH]n(-c3ccc(F)cc3)c(=O)c21 (stereo not drawn) [Example 27, 2-(4-fluorophenyl)-4-methyl-1,4-dihydro[1]benzothiopyrano[4,3-c]-pyrazol-3(2H)-one] | 50 mg/kg
4 | CC12CSc3ccccc3C1=NN(c1ccc(Br)cc1)C2=O (stereo not drawn) [Example 20, 2-(4-bromophenyl)-3a-methyl-3a,4-dihydro[1]benzothiopyrano[4,3-c]-pyrazol-3(2H)-one] | 1 mg/kg
5 | CC12CSc3ccccc3C1=NN(c1ccc(C(F)(F)F)cc1)C2=O (stereo not drawn) [Example 16, 3a-methyl-2-(4-trifluoromethylphenyl)-3a,4-dihydro[1]benzothiopyrano-[4,3-c]pyrazol-3(2H)-one] | 0.3 mg/kg
6 | CC1Sc2ccccc2-c2[nH]n(-c3ccc(Br)cc3)c(=O)c21 (stereo not drawn) [Example 30, 2-(4-bromophenyl)-4-methyl-1,4-dihydro[1]benzothiopyrano[4,3-c]-pyrazol-3(2H)-one] | 3 mg/kg
7 | Cc1ccc2sc(C)c3c(=O)n(-c4ccc(Cl)cc4)nc-3c2c1 [Example 41, 2-(4-chlorophenyl)-4,8-dimethyl[1]-benzothiopyrano[4,3-c]pyrazol-3(2H)-one] | 3 mg/kg
8 | CC12CSc3ccccc3C1=NN(c1ccc(Br)c(Cl)c1)C2=O (stereo not drawn) [Example 17, 2-(4-bromo-3-chlorophenyl)-3a-methyl-3a,4-dihydro[1]benzothiopyrano[4,3-c]-pyrazol-3(2H)-one] | 0.3 mg/kg
9 | CCc1sc2ccccc2c2nn(-c3ccc(Cl)cc3)c(=O)c1-2 [Example 37, 2-(4-chlorophenyl)-4-ethyl[1]benzo-thiopyrano[4,3-c]pyrazol-3(2H)-one] | 50 mg/kg
10 | CC12CSc3ccc(Cl)cc3C1=NN(c1ccc(Cl)c(Cl)c1)C2=O (stereo not drawn) [Example 15, 8-chloro-2-(3,4-dichlorophenyl)-3a-methyl-3a,4-dihydro[1]benzothio-pyrano[4,3-c]pyrazol-3(2H)-one] | 50 mg/kg
11 | Cc1sc2ccccc2c2nn(-c3ccc(C(F)(F)F)cc3)c(=O)c1-2 [Example 38, 4-methyl-2-(4-trifluoromethyl-phenyl)[1]benzothiopyrano[4,3-c]-pyrazol-3(2H)-one] | 0.3 mg/kg
12 | Cc1sc2ccccc2c2nn(-c3ccc(Br)cc3)c(=O)c1-2 [Example 39, 2-(4-bromophenyl)-4-methyl[1]benzo-thiopyrano[4,3-c]pyrazol-3(2H)-one] | 50 mg/kg
13 | CC12CSc3ccccc3C1=NN(c1ccc(F)cc1)C2=O (stereo not drawn) [Example 12, 2-(4-fluorophenyl)-3a-methyl-3a,4-dihydro[1]benzothiopyrano[4,3-c]-pyrazol-3(2H)-one] | 50 mg/kg
14 | Cc1sc2ccccc2c2nn(-c3ccc(F)cc3)c(=O)c1-2 [Example 36, 2-(4-fluorophenyl)-4-methyl[1]benzo-thiopyrano[4,3-c]pyrazol-3(2H)-one] | 10 mg/kg
15 | CC1Sc2ccccc2-c2[nH]n(-c3ccc(Cl)cc3)c(=O)c21 (stereo not drawn) [Example 25, 2-(4-chlorophenyl)-4-methyl-1,4-dihydro[1]benzothiopyrano[4,3-c]-pyrazol-3(2H)-one] | 30 mg/kg
16 | CC12CSc3ccccc3C1=NN(c1ccc(Cl)cc1)C2=O (stereo not drawn) [Example 11/ 23, 2-(4-chlorophenyl)-3a-methyl-3a,4-dihydro[1]benzothiopyrano[4,3-c]-pyrazol-3(2H)-one] | 3 mg/kg
17 | CC1Sc2ccccc2-c2[nH]n(-c3ccc(C(F)(F)F)cc3)c(=O)c21 (stereo not drawn) [Example 29/ 34/ 44, 4-methyl-2-(4-trifluoromethylphenyl)-1,4-dihydro[1]benzothiopyrano[4,3-c]-pyrazol-3(2H)-one] | 3 mg/kg
18 | CC12CSc3ccccc3C1=NN(c1ccc(Cl)c(Cl)c1)C2=O (stereo not drawn) [Example 13/ 24, 2-(3,4-dichlorophenyl)-3a-methyl-3a,4-dihydro[1]benzothiopyrano-[4,3-c]pyrazol-3(2H)-one] | 0.3 mg/kg
19 | COc1ccc(-n2nc3c4ccccc4sc(C)c-3c2=O)cc1 [Example 40, 2-(4-methoxyphenyl)-4-methyl[1]benzo-thiopyrano[4,3-c]pyrazol-3(2H)-one] | 50 mg/kg
20 | CC12CSc3ccccc3C1=NN(c1cccc(Cl)c1)C2=O (stereo not drawn) [Example 14, 2-(3-chlorophenyl)-3a-methyl-3a,4-dihydro[1]benzothiopyrano[4,3-c]-pyrazol-3(2H)-one] | 3 mg/kg
21 | Cc1sc2ccccc2c2nn(-c3cccc(Cl)c3)c(=O)c1-2 [Example 42, 2-(3-chlorophenyl)-4-methyl[1]benzo-thiopyrano[4,3-c]pyrazol-3(2H)-one] | 50 mg/kg
22 | CC12CSc3ccccc3C1=NN(c1ccc(F)c(Cl)c1)C2=O (stereo not drawn) [Example 18, 2-(3-chloro-4-fluorophenyl)-3a-methyl-3a,4-dihydro[1]benzothiopyrano[4,3-c]-pyrazol-3(2H)-one] | 3 mg/kg
23 | CSc1ccc(N2N=C3c4ccccc4SCC3(C)C2=O)cc1 (stereo not drawn) [Example 21, 3a-methyl-2-(4-methylthiophenyl)-3a,4-dihydro[1]benzothiopyrano[4,3-c]-pyrazol-3(2H)-one] | 50 mg/kg
24 | CC12CSc3ccc(F)cc3C1=NN(c1ccc(Cl)cc1)C2=O (stereo not drawn) [Example 22, 2-(4-chlorophenyl)-8-fluoro-3a-methyl-3a,4-dihydro[1]benzothiopyrano[4,3-c]-pyrazol-3(2H)-one] | 50 mg/kg
25 | CC1Sc2ccccc2-c2[nH]n(-c3ccc(Cl)c(Cl)c3)c(=O)c21 (stereo not drawn) [Example 26, 2-(3,4-dichlorophenyl)-4-methyl-1,4-dihydro[1]benzothiopyrano[4,3-c]-pyrazol-3(2H)-one] | 50 mg/kg
26 | CCC1Sc2ccccc2-c2[nH]n(-c3ccc(Cl)cc3)c(=O)c21 (stereo not drawn) [Example 28, 2-(4-chlorophenyl)-4-ethyl-1,4-dihydro[1]benzothiopyrano[4,3-c]-pyrazol-3(2H)-one] | 50 mg/kg
27 | Cc1ccc(N2N=C3c4ccccc4SCC3(C)C2=O)cc1Cl (stereo not drawn) [Example 19, 2-(3-chloro-4-methylphenyl)-3a-methyl-3a,4-dihydro[1]benzothiopyrano[4,3-c]-pyrazol-3(2H)-one] | 3 mg/kg
